One test concerns ESBL-producing bacteria. Nature of the test: growth inhibition of ESBL-producing bacteria. The format is cell-based.
For another test, the system named is Campylobacter bacteria. Nature of the test: growth inhibition of Campylobacter bacteria by cephamycin antibiotics. The format is cell-based.

Each structure is given as a SMILES string.

For the compound `CO[C@@]1(NC(=O)Cc2cccs2)C(=O)N2C(C(=O)O)=C(COC(N)=O)CS[C@@H]21` [Cefoxitin], the “inhibition of growth of ESBL-producing bacteria” value in the test with ESBL-producing bacteria is “inhibits the growth”. Also, the “inhibition of growth of Campylobacter bacteria” value in the test with Campylobacter bacteria is listed as “does not inhibit growth”.

The values are drawn from patent US20160130630A1, “METHOD FOR DETECTING CAMPYLOBACTER” (JNC CORPORATION, priority 2014, published 2016).
